Reference: PubChem BioAssay (NCI)
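Protocol summary: plate cells (96-well), add compound at 5 concentrations, incubate 48 h, interpolate endpoints linearly. TGI: concentration producing complete growth inhibition.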

Columns and labels:
Test in all cases: NCI anticancer screen, dose series, 48 h
SNB-19 CNS = test system: SNB-19 CNS
UO-31 renal = test system: UO-31 renal
HCC-2998 colon = test system: HCC-2998 colon
ACHN renal = test system: ACHN renal
XF 498 CNS = test system: XF 498 CNS
RXF 393 renal = test system: RXF 393 renal
SN12C renal = test system: SN12C renal
HCT-116 colon = test system: HCT-116 colon
EKVX NSCLC = test system: EKVX NSCLC
SNB-78 CNS = test system: SNB-78 CNS
OVCAR-4 ovarian = test system: OVCAR-4 ovarian
786-0 renal = test system: 786-0 renal
SK-MEL-5 melanoma = test system: SK-MEL-5 melanoma
KM12 colon = test system: KM12 colon
U251 CNS = test system: U251 CNS
IGROV1 ovarian = test system: IGROV1 ovarian
UACC-62 melanoma = test system: UACC-62 melanoma
SW-620 colon = test system: SW-620 colon
A498 renal = test system: A498 renal
MOLT-4 leukemia = test system: MOLT-4 leukemia
CAKI-1 renal = test system: CAKI-1 renal
DLD-1 colon = test system: DLD-1 colon
NCI-H522 lung = test system: NCI-H522 lung
HT29 colon = test system: HT29 colon
SF-539 CNS = test system: SF-539 CNS
NCI-H460 lung = test system: NCI-H460 lung
MALME-3M melanoma = test system: MALME-3M melanoma
OVCAR-5 ovarian = test system: OVCAR-5 ovarian
LOX IMVI melanoma = test system: LOX IMVI melanoma
SR leukemia = test system: SR leukemia
M14 melanoma = test system: M14 melanoma
HOP-92 NSCLC = test system: HOP-92 NSCLC
DMS 273 small cell lung = test system: DMS 273 small cell lung
CCRF-CEM leukemia = test system: CCRF-CEM leukemia
UACC-257 melanoma = test system: UACC-257 melanoma
TK-10 renal = test system: TK-10 renal
HL-60(TB) leukemia = test system: HL-60(TB) leukemia
OVCAR-8 ovarian = test system: OVCAR-8 ovarian
COLO 205 colon = test system: COLO 205 colon
NCI-H226 lung = test system: NCI-H226 lung
SK-OV-3 ovarian = test system: SK-OV-3 ovarian
OVCAR-3 ovarian = test system: OVCAR-3 ovarian
SNB-75 CNS = test system: SNB-75 CNS
K-562 leukemia = test system: K-562 leukemia
RXF-631 renal = test system: RXF-631 renal
NCI-H23 lung = test system: NCI-H23 lung
SK-MEL-28 melanoma = test system: SK-MEL-28 melanoma
RPMI-8226 leukemia = test system: RPMI-8226 leukemia
HOP-62 NSCLC = test system: HOP-62 NSCLC
LXFL 529 NSCLC = test system: LXFL 529 NSCLC
A549 NSCLC = test system: A549 NSCLC
DMS 114 small cell lung = test system: DMS 114 small cell lung
SF-295 CNS = test system: SF-295 CNS
HCT-15 colon = test system: HCT-15 colon
SF-268 CNS = test system: SF-268 CNS
KM20L2 colon = test system: KM20L2 colon
SK-MEL-2 melanoma = test system: SK-MEL-2 melanoma

**Q.** How did the TGI (SNB-19 CNS) turn out when `CCCCCCCCCCCCCCCC(=O)NC1CCc2cc(O)c(O)c(O)c2-c2ccc(SC)c(=O)cc21` (centres undefined) was run?
**A.** The TGI was 23.4 µM.

**Q.** What about the TGI (UO-31 renal) of the same compound?
**A.** Its TGI is 22.6 µM.

**Q.** What about the TGI (HCC-2998 colon) of the same compound?
**A.** The TGI was 20.9 µM.

**Q.** What about the TGI (ACHN renal) of the same compound?
**A.** Its TGI is 22.4 µM.

**Q.** And the TGI (XF 498 CNS)?
**A.** Its TGI is 29.6 µM.

**Q.** What about the TGI (RXF 393 renal) of the same compound?
**A.** The TGI was 7.66 µM.

**Q.** What about the TGI (SN12C renal) of the same compound?
**A.** Its TGI is 35.8 µM.

**Q.** And the TGI (HCT-116 colon)?
**A.** Its TGI is 17.2 µM.

**Q.** What about the TGI (EKVX NSCLC) of the same compound?
**A.** The TGI was 39.7 µM.

**Q.** What about the TGI (SNB-78 CNS) of the same compound?
**A.** The TGI was 28.2 µM.

**Q.** What about the TGI (OVCAR-4 ovarian) of the same compound?
**A.** The TGI was 28.9 µM.

**Q.** And the TGI (786-0 renal)?
**A.** The TGI was 33.3 µM.

**Q.** What about the TGI (SK-MEL-5 melanoma) of the same compound?
**A.** Its TGI is 16 µM.

**Q.** And the TGI (KM12 colon)?
**A.** The TGI was 20.3 µM.

**Q.** And the TGI (U251 CNS)?
**A.** The TGI was 12.6 µM.

**Q.** And the TGI (IGROV1 ovarian)?
**A.** The TGI was 25.3 µM.

**Q.** And the TGI (UACC-62 melanoma)?
**A.** The TGI was 10.9 µM.

**Q.** What about the TGI (SW-620 colon) of the same compound?
**A.** Its TGI is 19 µM.

**Q.** What about the TGI (A498 renal) of the same compound?
**A.** Its TGI is 39.5 µM.

**Q.** And the TGI (MOLT-4 leukemia)?
**A.** Its TGI is greater than 71.8 µM.

**Q.** What about the TGI (CAKI-1 renal) of the same compound?
**A.** Its TGI is 27.2 µM.

**Q.** And the TGI (DLD-1 colon)?
**A.** The TGI was 22.4 µM.

**Q.** What about the TGI (NCI-H522 lung) of the same compound?
**A.** Its TGI is 14.6 µM.

**Q.** And the TGI (HT29 colon)?
**A.** Its TGI is 27.8 µM.

**Q.** And the TGI (SF-539 CNS)?
**A.** The TGI was 9.2 µM.

**Q.** What about the TGI (NCI-H460 lung) of the same compound?
**A.** Its TGI is 19.6 µM.

**Q.** What about the TGI (MALME-3M melanoma) of the same compound?
**A.** The TGI was 28.5 µM.

**Q.** What about the TGI (OVCAR-5 ovarian) of the same compound?
**A.** Its TGI is 26.8 µM.

**Q.** What about the TGI (LOX IMVI melanoma) of the same compound?
**A.** The TGI was 24.8 µM.

**Q.** And the TGI (SR leukemia)?
**A.** The TGI was greater than 31 µM.

**Q.** And the TGI (M14 melanoma)?
**A.** The TGI was 25 µM.

**Q.** What about the TGI (HOP-92 NSCLC) of the same compound?
**A.** Its TGI is 8.28 µM.

**Q.** And the TGI (DMS 273 small cell lung)?
**A.** Its TGI is 16.4 µM.

**Q.** And the TGI (CCRF-CEM leukemia)?
**A.** Its TGI is 46.2 µM.

**Q.** What about the TGI (UACC-257 melanoma) of the same compound?
**A.** The TGI was 26.7 µM.

**Q.** And the TGI (TK-10 renal)?
**A.** The TGI was 30.2 µM.

**Q.** And the TGI (HL-60(TB) leukemia)?
**A.** Its TGI is greater than 36.7 µM.

**Q.** And the TGI (OVCAR-8 ovarian)?
**A.** Its TGI is 28.8 µM.

**Q.** What about the TGI (COLO 205 colon) of the same compound?
**A.** Its TGI is 16.9 µM.

**Q.** And the TGI (NCI-H226 lung)?
**A.** Its TGI is 27.4 µM.

**Q.** And the TGI (SK-OV-3 ovarian)?
**A.** The TGI was 29.5 µM.

**Q.** What about the TGI (OVCAR-3 ovarian) of the same compound?
**A.** Its TGI is 16.8 µM.

**Q.** What about the TGI (SNB-75 CNS) of the same compound?
**A.** Its TGI is 9.13 µM.

**Q.** And the TGI (K-562 leukemia)?
**A.** The TGI was greater than 40.7 µM.

**Q.** And the TGI (RXF-631 renal)?
**A.** The TGI was 28.1 µM.

**Q.** What about the TGI (NCI-H23 lung) of the same compound?
**A.** The TGI was 16.6 µM.

**Q.** And the TGI (SK-MEL-28 melanoma)?
**A.** Its TGI is 20.9 µM.

**Q.** What about the TGI (RPMI-8226 leukemia) of the same compound?
**A.** Its TGI is greater than 100 µM.

**Q.** What about the TGI (HOP-62 NSCLC) of the same compound?
**A.** Its TGI is 25.4 µM.

**Q.** And the TGI (LXFL 529 NSCLC)?
**A.** Its TGI is 8.04 µM.

**Q.** What about the TGI (A549 NSCLC) of the same compound?
**A.** Its TGI is 15.5 µM.

**Q.** And the TGI (DMS 114 small cell lung)?
**A.** The TGI was 6.37 µM.

**Q.** And the TGI (SF-295 CNS)?
**A.** The TGI was 13.7 µM.

**Q.** And the TGI (HCT-15 colon)?
**A.** The TGI was 15.5 µM.

**Q.** What about the TGI (SF-268 CNS) of the same compound?
**A.** Its TGI is 23 µM.

**Q.** What about the TGI (KM20L2 colon) of the same compound?
**A.** Its TGI is 32.7 µM.

**Q.** What does the source list for `Cc1cccc(C(C)(C)C)c1NC(=O)CC1C(=O)Nc2ccccc2S1=O` (centres undefined)?
**A.** TGI (SNB-19 CNS): > 100 µM; TGI (UO-31 renal): > 100 µM; TGI (HCC-2998 colon): > 100 µM; TGI (SK-MEL-2 melanoma): > 100 µM; TGI (ACHN renal): > 100 µM; TGI (XF 498 CNS): > 100 µM; TGI (SN12C renal): > 100 µM; TGI (HCT-116 colon): > 100 µM; TGI (SNB-78 CNS): > 100 µM; TGI (OVCAR-4 ovarian): 80.1 µM; TGI (786-0 renal): > 100 µM; TGI (KM12 colon): > 100 µM; TGI (U251 CNS): > 100 µM; TGI (SW-620 colon): > 100 µM; TGI (MOLT-4 leukemia): 69.2 µM; TGI (CAKI-1 renal): > 100 µM; TGI (DLD-1 colon): > 100 µM; TGI (NCI-H522 lung): > 100 µM; TGI (HT29 colon): > 100 µM; TGI (SF-539 CNS): > 100 µM; TGI (NCI-H460 lung): > 100 µM; TGI (MALME-3M melanoma): > 100 µM; TGI (OVCAR-5 ovarian): > 100 µM; TGI (LOX IMVI melanoma): > 100 µM; TGI (SR leukemia): 87.8 µM; TGI (M14 melanoma): > 100 µM; TGI (HOP-92 NSCLC): > 100 µM; TGI (DMS 273 small cell lung): > 100 µM; TGI (UACC-257 melanoma): > 100 µM; TGI (TK-10 renal): > 100 µM; TGI (HL-60(TB) leukemia): 43.7 µM; TGI (OVCAR-8 ovarian): > 100 µM; TGI (COLO 205 colon): 40.9 µM; TGI (NCI-H226 lung): > 100 µM; TGI (OVCAR-3 ovarian): > 100 µM; TGI (SNB-75 CNS): > 100 µM; TGI (K-562 leukemia): > 100 µM; TGI (RXF-631 renal): > 100 µM; TGI (NCI-H23 lung): 67.6 µM; TGI (SK-MEL-28 melanoma): > 100 µM; TGI (RPMI-8226 leukemia): > 100 µM; TGI (HOP-62 NSCLC): > 100 µM; TGI (LXFL 529 NSCLC): > 100 µM; TGI (A549 NSCLC): > 100 µM; TGI (SF-295 CNS): > 100 µM; TGI (HCT-15 colon): > 100 µM; TGI (SF-268 CNS): > 100 µM; TGI (KM20L2 colon): > 100 µM
